Patent US20220354764A1, “METHODS FOR PROMOTING HAIR GROWTH” (Follica, Inc., priority 2018, published 2022)

Assays:
[1] = Minoxidil blood serum concentration after needling device treatment plus 2%/5% MTS (Example 1); type: in vivo, human
Experimental: A multicenter randomized study was conducted to assess the safety and efficacy of treatment methods using a needling device in conjunction with minoxidil in adult males with androgenetic alopecia (AGA). The study involved 14 subjects, male, age 18-40 years, with a diagnosis of androgenetic alopecia. Data for 46 additional subjects is being gathered. The subjects were randomized and then completed treatment across 12 weeks (total of 3, 6, or 12 treatments with the needling device per randomization assignment, n=20 per arm). A final evaluation was conducted on Day 85 with no additional follow up required.
On Day 0, subjects were randomized to receive treatment with the needling device on a weekly (12 treatments), bi-weekly (6 treatments), or monthly (once every 4 weeks, for 3 total treatments) basis for 12 weeks, in a 1:1:1 ratio according to a centrally maintained randomization table. Treatment of the vertex (including transitional areas) with the needling device was initiated on Day 1.
Subjects in the monthly arm received needling device treatment once every 4 weeks, for 3 procedures total (e.g., needling device treatment on Days 1, 29, 57). Subjects in the bi-weekly arm received needling device treatment once every 2 weeks, for 6 procedures total (e.g., needling device treatment on Days 1, 15, 29, 43, 57, and 71). Subjects in the weekly arm received needling device treatment once every week, for 12 procedures total (e.g., needling device treatment on Days 1, 8, 15, 22, 29, 36, 43, 50, 57, 64, 71, and 78).
During needling treatments, the translation speed of the device, which is the speed at which the needling device was glided over the affected skin area, was 2 cm/second, while keeping the device perpendicular to the surface to help achieve a needle strike of 0.8 mm (+/−0.2 mm) micro-needling depth. The device needle array has 12 needles and the number of array oscillations per second was set at 120. The treatment width was 0.9 cm. Two overlapping passes were made in vertical and horizontal directions. As a result, 1600 needle strikes per cm^2 were performed. The micro-needling device was glided across the affected area of the skin such that each pass across the area of skin aligned with the prior pass across the skin, without gaps of skin between the passes, in a “mow the lawn” approach. Each pass of the micro-needling device started with a gliding start and a smooth retraction of the device from the skin area following each pass. The micro-needling device was applied to the skin area with consistent, light pressure, allowing the device to glide along the skin. The configuration of needles in the needle array consists of 2 offset rows of 6 microneedles.
A post-treatment visit was required following each subject's first treatment with the needling device across all study arms to confirm wound closure. The post-treatment visit was performed 24-36 hours following the first treatment with the needling device. If adequate wound closure and skin normality was not achieved, the subject would return for a second post-treatment visit 24-36 hours following the first post-treatment visit. Once adequate wound closure was confirmed, subjects were provided study drug to be applied in accordance with the instructions provided herein (vertex, including transitional areas). The very first application of study drug was performed in-clinic during the first post-treatment visit in which wound closure is confirmed. […]

[2] = system: adult males with androgenetic alopecia (AGA); assay: Hair count by macrophotography after needling device treatment plus minoxidil (Example 1); type: in vivo, human; conditions: needling device plus 2%/5% MTS, 12 weeks; comparison: 12% increase in Olsen 2002 and 2007
Excerpt: A macrophotography procedure as referred to herein includes identifying the designated photography site, clipping hair within targeted photography site to a length of 1 mm, and creating a needlestick tattoo in the center of the targeted photography site for future orientation (pressure was applied until any bleeding stops), mapping the position of the tattoo, and recording the measurements on the provided documentation. The procedure further includes using the tattoo as a reference point take the first Baseline photograph without the contact plate, and again, using the tattoo as a reference point, performing remaining Baseline photography with the contact plate. From the identified designated photography site, the width of each hair is determined using an electronic caliber measurement. All hairs greater than […] are classified as terminal hairs. […]
A macrophotography procedure as described above was carried out for each subject, using a single, circular 1.9 cm^2 site in the leading edge of an actively balding area of the vertex as the designated photography site. Total Area Hair Count (TAHC), Target Area Hair Width (TAHW) and Target Area Hair Density/Darkness (TAHD) were assessed via quantitative image analysis to determine non-vellus hair count (primary and secondary endpoint) and total hair count (non-vellus and vellus hair, secondary endpoint). […]

- serum level average, Day 1 ([1]; Day 1, needling device plus MTS regimen): 1.29 ng/mL
- serum level average, Day 29 ([1]; Day 29, needling device plus MTS regimen): 0.99 ng/mL
- serum level average, Day 57 ([1]; Day 57, needling device plus MTS regimen): 0.79 ng/mL
- serum level average, Day 85 ([1]; Day 85, final study visit, needling device plus MTS regimen): 0.65 ng/mL
- maximum serum level recorded in the study ([1]; individual maximum, needling device plus 2%/5% MTS step-up): 5.5 ng/mL
SMILES: Nc1cc(N2CCCCC2)nc(N)[n+]1[O-] [minoxidil]
- subjects showing an increase in non-vellus target area hair count greater than prior large minoxidil studies [2]: 79%
